Laboratory results as given in US20050070532A1, “Aryl compounds as modulators of PPARS and methods of treating metabolic disorders” (priority 2003, published 2005).

Legend:
hPPARγ = target: T1, hPPARγ (Homo sapiens, UniProt P37231); test: cell-based human PPAR-GAL4 chimera luciferase reporter assay in CV-1 cells (PPARγ); settings: CV-1 cells transiently transfected with PPAR LBD-GAL4 chimera and luciferase reporter, 24 hours treatment
T1 construct: expressed in transfected cells; host or cells: CV-1 cells
T1 sequence (P37231 238-503 limits assumed): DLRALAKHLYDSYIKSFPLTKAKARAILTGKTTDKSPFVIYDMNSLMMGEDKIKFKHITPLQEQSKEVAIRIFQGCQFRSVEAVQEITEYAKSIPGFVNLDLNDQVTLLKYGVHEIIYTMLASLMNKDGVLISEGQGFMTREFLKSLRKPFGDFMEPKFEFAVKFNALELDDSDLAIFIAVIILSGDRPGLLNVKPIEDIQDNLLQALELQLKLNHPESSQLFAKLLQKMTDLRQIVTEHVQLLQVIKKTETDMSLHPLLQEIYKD
Procedure: (§1) The compounds were evaluated in a cell-based assay to determine their human PPAR activity. The plasmids for human PPAR-GAL4 chimeras were prepared by fusing amplified cDNAs encoding the LBDs of PPARs to the C-terminal end of the yeast GAL4 DNA binding domain. CV-1 cells were grown and transiently tranfected with PerFectin (GTS, San Diego, Calif.) according to the manufacturer's protocol along with a luciferase reporter. Eight hours after transfection, 50 μL of cells were replated into 384 well plates (1×10^5 cells/well). Sixteen hours after replating, cells were treated with either compounds or 1% DMSO for 24 hours. Luciferase activity was then assayed with Britelite (Perkin Elmer) following the manufacturer's protocol and measured with either the Perkin Elmer Viewlux or Molecular Devices Acquest.

hPPARα = target: T2, hPPARα (Homo sapiens, UniProt Q07869); test: cell-based human PPAR-GAL4 chimera luciferase reporter assay in CV-1 cells (PPARα); settings: CV-1 cells transiently transfected with PPAR LBD-GAL4 chimera and luciferase reporter, 24 hours treatment; read-out: hPPAPα (EC50)
T2 construct: expressed in transfected cells; host or cells: CV-1 cells
T2 sequence (Q07869 239-466 limits assumed): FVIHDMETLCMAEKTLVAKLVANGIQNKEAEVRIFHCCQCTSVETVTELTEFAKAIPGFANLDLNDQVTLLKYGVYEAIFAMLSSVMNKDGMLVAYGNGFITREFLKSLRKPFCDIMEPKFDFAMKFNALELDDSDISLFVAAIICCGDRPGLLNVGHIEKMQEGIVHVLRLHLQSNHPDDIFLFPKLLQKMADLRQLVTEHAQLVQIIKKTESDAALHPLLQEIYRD
Procedure: as §1

hPPARδ = target: T3, hPPARδ (Homo sapiens, UniProt Q03181); test: cell-based human PPAR-GAL4 chimera luciferase reporter assay in CV-1 cells (PPARδ); settings: CV-1 cells transiently transfected with PPAR LBD-GAL4 chimera and luciferase reporter, 24 hours treatment
T3 construct: expressed in transfected cells; host or cells: CV-1 cells
T3 sequence (Q03181 211-439 limits assumed): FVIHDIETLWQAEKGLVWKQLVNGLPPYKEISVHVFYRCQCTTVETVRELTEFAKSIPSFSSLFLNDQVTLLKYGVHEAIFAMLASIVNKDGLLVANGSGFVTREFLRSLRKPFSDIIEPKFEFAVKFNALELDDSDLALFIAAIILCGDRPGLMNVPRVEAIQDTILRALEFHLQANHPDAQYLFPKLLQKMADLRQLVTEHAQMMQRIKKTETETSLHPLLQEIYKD
Procedure: as §1

`CCc1cnc(N(CCCOc2ccc3cc(C(=O)O)ccc3c2)Cc2ccc(C(F)(F)F)cc2C(F)(F)F)nc1` was tested, and the EC50 (hPPARγ) was greater than 100 µM, the EC50 (hPPARα) was greater than 100 µM and the EC50 (hPPARδ) was greater than 100 µM.
In the case of `O=C(O)Cc1cccc(OCCCN(Cc2ccc(C(F)(F)F)cc2C(F)(F)F)c2nc3ccccc3s2)c1`, the EC50 (hPPARγ) is reported as less than 1 µM, the EC50 (hPPARα) is reported as greater than 100 µM and the EC50 (hPPARδ) is reported as 1 to 100 µM.
In the case of `CCCCN(CCCOc1cccc(CC(=O)O)c1)c1ccccn1`, the EC50 (hPPARγ) is reported as less than 1 µM, the EC50 (hPPARα) is reported as greater than 100 µM and the EC50 (hPPARδ) is reported as 1 to 100 µM.
`CCCCN(CCCOc1cccc(CC(=O)O)c1)c1ncc(CC)cn1` showed an EC50 (hPPARγ) of less than 1 µM, an EC50 (hPPARα) greater than 100 µM and an EC50 (hPPARδ) of 1 to 100 µM.
Compound `O=C(O)Cc1cccc(OCCCN(Cc2ccc(C(F)(F)F)cc2)c2nc3ccccc3s2)c1` has an EC50 (hPPARγ) of less than 1 µM, an EC50 (hPPARα) of less than 1 µM and an EC50 (hPPARδ) of less than 1 µM.
For `CCCCN(CCCOc1cccc(CC(=O)O)c1)c1nc2ccccc2o1`, the EC50 (hPPARγ) was greater than 100 µM, the EC50 (hPPARα) was 1 to 100 µM and the EC50 (hPPARδ) was 1 to 100 µM.
Work on `O=C(O)c1ccc2ccccc2c1OCCCN(Cc1ccc(C(F)(F)F)cc1)c1nc2ccccc2s1` yielded an EC50 (hPPARγ) of less than 1 µM, an EC50 (hPPARα) greater than 100 µM and an EC50 (hPPARδ) greater than 100 µM.
For `CCCCN(CCCOc1c(C(=O)O)ccc2ccccc12)c1ccccn1`, the EC50 (hPPARγ) was less than 1 µM, the EC50 (hPPARα) was greater than 100 µM and the EC50 (hPPARδ) was greater than 100 µM.
For `CCc1cnc(N(CCCOc2cccc(CC(=O)O)c2)Cc2ccc(C(F)(F)F)cc2C(F)(F)F)nc1`, the EC50 (hPPARγ) was less than 1 µM, the EC50 (hPPARα) was less than 1 µM and the EC50 (hPPARδ) was less than 1 µM.
Compound `O=C(O)Cc1cccc(OCCCN(Cc2ccc(C(F)(F)F)cc2C(F)(F)F)c2nc3ccccc3o2)c1` has an EC50 (hPPARγ) of less than 1 µM, an EC50 (hPPARα) greater than 100 µM and an EC50 (hPPARδ) of 1 to 100 µM.
`CCc1cnc(N(CCCOc2c(C(=O)O)ccc3ccccc23)Cc2ccc(C(F)(F)F)cc2C(F)(F)F)nc1` gave an EC50 (hPPARγ) of less than 1 µM, an EC50 (hPPARα) of 1 to 100 µM and an EC50 (hPPARδ) greater than 100 µM.
Compound `O=C(O)c1ccc2ccccc2c1OCCCN(Cc1ccc(C(F)(F)F)cc1C(F)(F)F)c1nc2ccccc2o1` has an EC50 (hPPARγ) of less than 1 µM, an EC50 (hPPARα) greater than 100 µM and an EC50 (hPPARδ) greater than 100 µM.
Compound `CCCCN(CCCOc1c(C(=O)O)ccc2ccccc12)c1nc2ccccc2s1` has an EC50 (hPPARγ) of 1 to 100 µM, an EC50 (hPPARα) greater than 100 µM and an EC50 (hPPARδ) of 1 to 100 µM.
With `CCCCN(CCCOc1cccc(CC(=O)O)c1)c1nc2ccccc2s1` the EC50 (hPPARγ) was greater than 100 µM, the EC50 (hPPARα) was 1 to 100 µM and the EC50 (hPPARδ) was 1 to 100 µM.
`CCc1cnc(N(CCCOc2cc3ccccc3cc2C(=O)O)Cc2ccc(C(F)(F)F)cc2C(F)(F)F)nc1` showed an EC50 (hPPARγ) of less than 1 µM, an EC50 (hPPARα) of 1 to 100 µM and an EC50 (hPPARδ) greater than 100 µM.
In the case of `CCCCN(CCCOc1c(C(=O)O)ccc2ccccc12)c1ncc(CC)cn1`, the EC50 (hPPARγ) is reported as less than 1 µM, the EC50 (hPPARα) is reported as greater than 100 µM and the EC50 (hPPARδ) is reported as greater than 100 µM.
Compound `CCCCN(CCCOc1c(C(=O)O)ccc2ccccc12)c1nc2ccccc2o1` has an EC50 (hPPARγ) of 1 to 100 µM, an EC50 (hPPARα) greater than 100 µM and an EC50 (hPPARδ) greater than 100 µM.
`O=C(O)Cc1cccc(OCCCN(Cc2ccc(C(F)(F)F)cc2C(F)(F)F)c2ccccn2)c1` gave an EC50 (hPPARγ) of less than 1 µM, an EC50 (hPPARα) greater than 100 µM and an EC50 (hPPARδ) of less than 1 µM.
